Experimental data published in US20070219214A1, “Dual NK2/NK3-antagonists, pharmaceutical compositions comprising them, and processes for their preparation” (Solvay pharmaceuticals GmbH, priority 2006, published 2007).
Read-outs that look alike come from different tables or passages of the source.

What was measured:
NK1-receptor = molecular target: T1, NK1-receptor (Cavia porcellus, UniProt P30547); assay: NK1-receptor-antagonistic effectiveness in vivo, NKA-induced early hypotension in anaesthetised guinea pigs; settings: guinea pig; for ED50 iv after 1 min (cumulative), NK1 (early hypotension) / ED50 AUC1-180 min oral, NK1 (early hypotension): NKA 200 pmol/animal i.v.; for ED50 iv after 1 min (cumulative), NK1 (early hypotension): intravenous administration
T1 construct: from tissue; host or cells: whole animal (Pirbright-White guinea pigs), in vivo
T1 sequence (P30547 whole entry): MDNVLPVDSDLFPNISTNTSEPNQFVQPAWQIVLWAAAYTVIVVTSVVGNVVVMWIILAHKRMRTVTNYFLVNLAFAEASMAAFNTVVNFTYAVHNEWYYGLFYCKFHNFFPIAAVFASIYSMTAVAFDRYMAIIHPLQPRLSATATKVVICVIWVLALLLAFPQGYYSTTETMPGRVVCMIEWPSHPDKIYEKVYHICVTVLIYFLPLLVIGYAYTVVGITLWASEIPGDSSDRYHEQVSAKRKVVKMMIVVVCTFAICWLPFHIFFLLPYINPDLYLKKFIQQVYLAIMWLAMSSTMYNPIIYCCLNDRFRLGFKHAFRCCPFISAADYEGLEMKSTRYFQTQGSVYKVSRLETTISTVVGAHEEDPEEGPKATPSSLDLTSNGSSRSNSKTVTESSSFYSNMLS
Description: (§1) 10. Determination of the NK1- and NK2-Receptor-Antagonistic Effectiveness of the Test Substances In Vivo
(§2) The NK1- and NK2-antagonistic activities of the test substances were investigated in anaesthetised guinea pigs in each case after intravenous (=i.v.) and oral (=p.o.) administration in vivo. With the present test model it is possible to detect both NK2-antagonistic effects in three different organ systems (respiratory tracts, colon and circulation) and NK1-antagonistic effects (rapid drop in blood pressure) in an animal simultaneously.
(§3) Pirbright-White guinea pigs of a body weight of 500-700 g were anaesthetised with ketamine/xylazine (67/13 mg/kg subcutaneously, initial dose, further doses administered as required). The animals were provided with an intravenous catheter in order to administer the substance and an intra-arterial catheter to measure the blood pressure. The animals were artificially ventilated via a tracheal cannula and the respiratory pressure was recorded by means of a pressure transducer. A balloon was introduced into the distal colon of the animals for manometric recording of colon motility by means of a pressure transducer. Blood pressure, heart rate, respiratory pressure and colonic pressure were measured continuously for each animal and plotted on a recorder and by means of a digital data-processing system. […] The second phase of delayed hypotension (=phase of maximum hypotension after 2-5 min.) on the other hand is mediated via NK2-receptors, since they can be blocked by specific NK2-receptor antagonists.
(§4) These ED50 values obtained from cumulative dose effect curves are plotted in Table 13.

NK2-receptor = molecular target: T2, NK2-receptor (Cavia porcellus, UniProt Q64077); assay: NK2-receptor-antagonistic effectiveness in vivo, NKA-induced late hypotension, bronchoconstriction and colonic pressure in anaesthetised guinea pigs; settings: guinea pig; for ED50 iv after 1 min (cumulative), NK2 (bronchoconstriction) / ED50 iv after 1 min (cumulative), NK2 (colonic motility) / ED50 iv after 1 min (cumulative), NK2 (late hypotension) / ED50 AUC1-180 min oral, NK2 (bronchoconstriction) / ED50 AUC1-180 min oral, NK2 (colonic motility) / ED50 AUC1-180 min oral, NK2 (late hypotension): NKA 200 pmol/animal i.v.; for ED50 iv after 1 min (cumulative), NK2 (bronchoconstriction) / ED50 iv after 1 min (cumulative), NK2 (colonic motility) / ED50 iv after 1 min (cumulative), NK2 (late hypotension): intravenous administration; for ED50 AUC1-180 min oral, NK2 (bronchoconstriction) / ED50 AUC1-180 min oral, NK2 (colonic motility) / ED50 AUC1-180 min oral, NK2 (late hypotension) / oral activity on the NK2, in words: oral administration
T2 construct: from tissue; host or cells: whole animal (Pirbright-White guinea pigs), in vivo
T2 sequence (Q64077 1-402): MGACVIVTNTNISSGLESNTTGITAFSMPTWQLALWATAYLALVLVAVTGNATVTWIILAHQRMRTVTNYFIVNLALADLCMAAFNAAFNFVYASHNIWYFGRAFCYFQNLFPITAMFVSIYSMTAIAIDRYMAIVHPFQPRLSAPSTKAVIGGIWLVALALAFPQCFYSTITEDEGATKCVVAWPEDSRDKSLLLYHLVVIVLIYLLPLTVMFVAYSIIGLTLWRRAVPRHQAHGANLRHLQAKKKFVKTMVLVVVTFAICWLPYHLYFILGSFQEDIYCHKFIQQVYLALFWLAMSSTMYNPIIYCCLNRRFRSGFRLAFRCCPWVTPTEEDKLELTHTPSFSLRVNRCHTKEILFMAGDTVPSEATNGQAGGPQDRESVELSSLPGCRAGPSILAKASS
Description: as §1, §2, §3, §4

human NK2-receptor = molecular target: T3, human NK2-receptor (Homo sapiens, UniProt P21452); assay: Binding potency of the test substances to NK2-receptors in vitro ([3H]-SR 48968 displacement); set-up: expressed in transfected cells; host or cells: CHO cells (membrane preparation); settings: human NK2-receptor in CHO cell membranes, [3H]-SR 48968 (saredutant), average of at least three measurements; for Ki: read-out: pKi, binding potency to NK2-receptors (converted)
T3 sequence (P21452 1-398): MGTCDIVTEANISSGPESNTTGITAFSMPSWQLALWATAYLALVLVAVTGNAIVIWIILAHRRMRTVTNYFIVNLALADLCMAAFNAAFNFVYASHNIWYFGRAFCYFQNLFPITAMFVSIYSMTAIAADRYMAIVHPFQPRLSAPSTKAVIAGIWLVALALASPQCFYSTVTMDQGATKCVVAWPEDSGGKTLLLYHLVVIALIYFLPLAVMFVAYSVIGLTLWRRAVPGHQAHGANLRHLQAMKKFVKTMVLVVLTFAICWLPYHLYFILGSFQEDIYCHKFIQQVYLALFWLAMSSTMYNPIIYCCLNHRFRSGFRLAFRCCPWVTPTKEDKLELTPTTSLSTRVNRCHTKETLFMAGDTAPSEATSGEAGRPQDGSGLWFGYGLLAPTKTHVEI
Procedure, shortened: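 Membranes from CHO cells stably expressing the receptor were incubated with [3H]-saredutant plus test compound, then filtered and counted by liquid scintillation. Nonspecific binding defined with 0.1 μmol/l unlabeled saredutant. IC50 from displacement converted to Ki via Cheng-Prusoff and reported as pKi, averaged over measurements.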

human NK3 receptor = molecular target: T4, human NK3 receptor (Homo sapiens, UniProt P29371); assay: Functional cellular test, Ca2+ measurements using aequorin for NK3 activity; type: cell-based; set-up: expressed in transfected cells; host or cells: cell line co-expressing mitochondrially targeted apoaequorin (CHO according to b76/b77); settings: for pA2 data for NK3: cell line with human NK3 receptor and apoaequorin, agonist senktide 5x10-8 M; for Kb: read-out: pA2 data for NK3 (converted)
T4 sequence (P29371 1-465): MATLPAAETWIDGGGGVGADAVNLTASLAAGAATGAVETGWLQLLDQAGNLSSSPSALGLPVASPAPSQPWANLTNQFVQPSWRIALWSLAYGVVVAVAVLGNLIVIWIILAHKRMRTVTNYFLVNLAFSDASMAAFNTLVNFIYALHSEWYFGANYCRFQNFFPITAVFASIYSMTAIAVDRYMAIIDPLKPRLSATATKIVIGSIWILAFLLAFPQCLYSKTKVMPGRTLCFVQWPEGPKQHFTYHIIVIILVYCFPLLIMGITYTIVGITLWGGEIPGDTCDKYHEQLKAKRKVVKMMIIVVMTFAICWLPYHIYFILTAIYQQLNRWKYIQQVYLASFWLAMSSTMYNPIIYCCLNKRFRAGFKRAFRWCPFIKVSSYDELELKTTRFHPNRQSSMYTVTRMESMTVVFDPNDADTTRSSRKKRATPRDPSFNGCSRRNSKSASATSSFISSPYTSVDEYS

[1] = iv, read-out: ED50 iv after 1 min (cumulative), NK1 (early hypotension)
[2] = iv, read-out: ED50 iv after 1 min (cumulative), NK2 (bronchoconstriction)
[3] = iv, read-out: ED50 iv after 1 min (cumulative), NK2 (colonic motility)
[4] = iv, read-out: ED50 iv after 1 min (cumulative), NK2 (late hypotension)

SMILES | ED50 iv after 1 min (cumulative), NK1 (early hypotension) (NK1-receptor) | ED50 iv after 1 min (cumulative), NK2 (bronchoconstriction) (NK2-receptor) | ED50 iv after 1 min (cumulative), NK2 (colonic motility) (NK2-receptor) | ED50 iv after 1 min (cumulative), NK2 (late hypotension) (NK2-receptor) | oral activity on the NK2, in words (NK2-receptor) | pKi, binding potency to NK2-receptors (human NK2-receptor) | pA2 data for NK3 (human NK3 receptor) | ED50 (NK1-receptor; [1]) | ED50 (NK2-receptor; [2]) | ED50 (NK2-receptor; [3]) | ED50 (NK2-receptor; [4]) | Ki (human NK2-receptor) | Kb (human NK3 receptor) | other results
CN(C)C(=O)C1(N2CCCCC2)CCN(CC[C@H](CN(C)C(=O)c2cc(C#N)c3ccccc3c2)c2ccc(Cl)c(Cl)c2)CC1 [compound 11] | 0.433 µmol/kg | 0.052 µmol/kg | 0.085 µmol/kg | 0.212 µmol/kg | active orally on the NK2 | 8.7 | 8.1 |  |  |  |  |  |  | ED50 AUC1-180 min oral, NK1 (early hypotension) (NK1-receptor; oral administration): 23.027 µmol/kg; NK-1-receptor-antagonistic activity on the early hypotension, in words (NK1-receptor; cumulative administration i.v., 1 min after administration): marked NK-1-receptor-antagonistic activity; oral activity as NK1 receptor antagonist, in words (NK1-receptor; oral administration): active as NK1 receptor antagonists; ED50 AUC1-180 min oral, NK2 (bronchoconstriction) (NK2-receptor): 2.213 µmol/kg; ED50 AUC1-180 min oral, NK2 (colonic motility) (NK2-receptor): 11.228 µmol/kg; ED50 AUC1-180 min oral, NK2 (late hypotension) (NK2-receptor): 2.509 µmol/kg
CN(C)C(=O)C1(N2CCCCC2)CCN(CC[C@H](CN(C)C(=O)c2ccccc2)c2ccc(Cl)c(Cl)c2)CC1 [compound 1] |  |  |  |  | active orally on the NK2 |  |  | > 0.46 µmol/kg | 0.033 µmol/kg | < 0.003 µmol/kg | 0.044 µmol/kg | 0.158 nM | 2.51 nM | ED50 (NK1-receptor; read-out: ED50 AUC1-180 min oral, NK1 (early hypotension)): > 3.2 µmol/kg; ED50 (NK2-receptor; read-out: ED50 AUC1-180 min oral, NK2 (bronchoconstriction)): 0.457 µmol/kg; ED50 (NK2-receptor; read-out: ED50 AUC1-180 min oral, NK2 (colonic motility)): 1.08 µmol/kg; ED50 (NK2-receptor; read-out: ED50 AUC1-180 min oral, NK2 (late hypotension)): 2.24 µmol/kg
CN(C)C(=O)C1(N2CCCCC2)CCN(CC[C@H](CN(C)C(=O)c2cc(F)ccc2F)c2ccc(Cl)c(Cl)c2)CC1 [compound 15] | >1.462 µmol/kg | 0.075 µmol/kg | 0.066 µmol/kg | 0.1 µmol/kg |  | 9.2 | 8.1 |  |  |  |  |  |  | 
CN(C)C(=O)C1(N2CCCCC2)CCN(CC[C@H](CN(C)C(=O)c2ccc(F)c(F)c2)c2ccc(Cl)c(Cl)c2)CC1 [compound 14] | >1.462 µmol/kg | 0.26 µmol/kg | 0.245 µmol/kg | 0.247 µmol/kg |  | 9.1 | 8.1 |  |  |  |  |  |  | 
CN(C)C(=O)C1(N2CCCCC2)CCN(CC[C@H](CN(C)C(=O)c2ccc(O)cc2)c2ccc(Cl)c(Cl)c2)CC1 [compound 6, 1′-{(3S)-3-(3,4-dichlorophenyl)-4-[(4-hydroxybenzoyl)-(methyl)amino]butyl}-N,N-dimethyl-1,4′-bipiperidine-4′-carboxamide] |  |  |  |  |  |  |  | > 1.46 µmol/kg | 0.06 µmol/kg | 0.096 µmol/kg | 0.04 µmol/kg | 0.631 nM | 2 nM | 
CN(C)C(=O)C1(N2CCCCC2)CCN(CCC(CN(C)C(=O)c2cccnc2)c2ccc(Cl)c(Cl)c2)CC1 (stereo not shown) [compound 19] |  |  |  |  |  |  |  | > 1.46 µmol/kg | 0.093 µmol/kg | 0.028 µmol/kg | 0.209 µmol/kg | 3.16 nM | 50.1 nM | 
CN(C)C(=O)C1(N2CCCCC2)CCN(CC[C@H](CN(C)C(=O)c2ccc(F)cc2)c2ccc(Cl)c(Cl)c2)CC1 [compound 4] | >1.462 µmol/kg | 0.058 µmol/kg | 0.053 µmol/kg | 0.04 µmol/kg | active orally on the NK2 | 9.6 | 8.2 |  |  |  |  |  |  | ED50 AUC1-180 min oral, NK1 (early hypotension) (NK1-receptor; oral administration): >10 µmol/kg; ED50 AUC1-180 min oral, NK2 (bronchoconstriction) (NK2-receptor): <3.2 µmol/kg; ED50 AUC1-180 min oral, NK2 (colonic motility) (NK2-receptor): <3.2 µmol/kg; ED50 AUC1-180 min oral, NK2 (late hypotension) (NK2-receptor): 12 µmol/kg

Further lines, with some results ahead:

ED50 iv after 1 min (cumulative), NK1 (early hypotension) (NK1-receptor) | ED50 iv after 1 min (cumulative), NK2 (bronchoconstriction) (NK2-receptor) | ED50 iv after 1 min (cumulative), NK2 (colonic motility) (NK2-receptor) | ED50 iv after 1 min (cumulative), NK2 (late hypotension) (NK2-receptor) | oral activity on the NK2, in words (NK2-receptor) | pKi, binding potency to NK2-receptors (human NK2-receptor) | pA2 data for NK3 (human NK3 receptor) | ED50 (NK1-receptor; [1]) | ED50 (NK2-receptor; [2]) | ED50 (NK2-receptor; [3]) | ED50 (NK2-receptor; [4]) | Ki (human NK2-receptor) | Kb (human NK3 receptor) | SMILES | other results
 |  |  |  |  |  |  | > 1.46 µmol/kg | 0.18 µmol/kg | 0.068 µmol/kg | 0.181 µmol/kg | 1.26 nM | 10 nM | CN(C)C(=O)C1(N2CCCCC2)CCN(CCC(CN(C)C(=O)c2ccc(Cl)nc2)c2ccc(Cl)c(Cl)c2)CC1 (stereo not shown) [compound 18] | 
>1.462 µmol/kg | 0.221 µmol/kg | 0.07 µmol/kg | 0.397 µmol/kg |  | 8.8 | 8.2 |  |  |  |  |  |  | CN(C)C(=O)C1(N2CCCCC2)CCN(CC[C@H](CN(C)C(=O)C2CCCCC2)c2ccc(Cl)c(Cl)c2)CC1 [compound 3] | 
 |  |  |  |  | 9.0 | 8.0 |  |  |  |  |  |  | CN(C)C(=O)C1(N2CCCCC2)CCN(CC[C@H](CN(C)C(=O)c2ccc(F)cc2F)c2ccc(Cl)c(Cl)c2)CC1 [compound 13] | 
